# Data as given in BindingDB's records for doi:10.1016/S0960-894X(01)80753-8 (1993).
# Molecular target: Platelet-activating factor receptor (Oryctolagus cuniculus)
# Test: Inhibition of [3H]PAF binding to rabbit platelet membranes
row,Compound,Ki
1,"O=C(c1ccccc1)c1cccc(NC(=O)[C@H]2OC(=O)N3[C@H](c4cccnc4)SC[C@@H]23)c1 [(1S,5S,7aR)-3-Oxo-5-pyridin-3-yl-dihydro-thiazolo[3,4-c]oxazole-1-carboxylic acid (3-benzoyl-phenyl)-amide]",150 nM
2,"O=C(c1ccccc1)c1cccc(NC(=O)[C@@H]2OC(=O)N3[C@H](c4cccnc4)SC[C@@H]23)c1 [(1R,5S,7aR)-3-Oxo-5-pyridin-3-yl-dihydro-thiazolo[3,4-c]oxazole-1-carboxylic acid (3-benzoyl-phenyl)-amide]",2500 nM
3,O=C(c1ccccc1)c1cccc(NC(=O)[C@@H]2CSC(c3cccnc3)N2)c1 (stereo partly drawn) [(R)-2-Pyridin-3-yl-thiazolidine-4-carboxylic acid (3-benzoyl-phenyl)-amide],5 nM

# Continued, values first:
row,Ki,Compound
1,24 nM,"O=C(c1ccccc1)c1cccc(NC(=O)[C@H]2OC(=O)N3[C@@H](c4cccnc4)SC[C@@H]23)c1 [(1S,5R,7aR)-3-Oxo-5-pyridin-3-yl-dihydro-thiazolo[3,4-c]oxazole-1-carboxylic acid (3-benzoyl-phenyl)-amide]"
2,1200 nM,"O=C(c1ccccc1)c1cccc(NC(=O)[C@@H]2OC(=O)N3[C@@H](c4cccnc4)SC[C@@H]23)c1 [(1R,5R,7aR)-3-Oxo-5-pyridin-3-yl-dihydro-thiazolo[3,4-c]oxazole-1-carboxylic acid (3-benzoyl-phenyl)-amide]"
